For 32 molecules, percent span and EC50 results are on record in PubChem BioAssay AID651855 (NMMLSC, 2012).

Activity calls are given as the source filed them.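 Rule for the calls: active = compounds whose fitted concentration for half loss of dye binding is under 10 µM; inactive = the rest.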

Assay [1] is described as follows: FAP-tagged hCCR5 fluorogen binding interference – cell-based, FAP-tagged human CCR5, Powderset3, counter-screen for beta2AR agonist project, dose response (AID 651855). Conditions: FAP-tagged hCCR5 cells, MG2p fluorogen binding, flow cytometry; hits give high values. On the technique in general: Counterscreens check selectivity or assay interference.
In assay [2] the test system is FAP-tagged hCCR5 cells, MG2p fluorogen binding, flow cytometry. The description is as above.

Consider `CC(Oc1ccc(Cl)cc1Cl)c1nc(-c2ccc(NC(=O)c3ccco3)cc2)no1` (configuration not stated), for which the percent span in assay [1] is 42.1% (inactive). The EC50 is the concentration needed to bring the measured effect to its halfway point. Take `CC(Oc1ccc(Cl)cc1Cl)c1nc(-c2ccc(NC(=O)c3ccccn3)cc2)no1` (configuration not stated): the concentration giving a half-maximal response (EC50) in assay [2] is 427 nM. As for `CC(C)CNc1ncnc2c1sc1nc(N3CCOCC3)c3c(c12)CC(C)(C)OC3`, the percent span in assay [1] was -9.78% (inactive). `Cc1ccc(NC(=O)C(c2ccc(Cl)cc2)N2CCOCC2)cc1` (configuration not stated): the percent span in assay [1] was 49.5% (inactive). For the molecule `C=CCn1c(CCNC(=O)c2cccs2)nnc1SCC(=O)c1ccc(Cl)cc1`, the concentration giving a half-maximal response (EC50) in assay [2] was 7.09 nM. Same read-out and setting: the same measure for `Cc1ccc(Cn2ccc(NC(=O)c3cc4nc(-c5ccco5)cc(C(F)(F)F)n4n3)n2)cc1`: 8.96 nM; for `Cn1c(N2CCN(c3ccccn3)CC2)nc2c1c(=O)n(Cc1ccc(Cl)cc1)c(=O)n2C`: 20.9 nM. In the case of `COC(=O)c1ccc(CNC(=O)c2cc(COc3cncc(Cl)c3)on2)cc1`, the percent span in assay [1] is 28.2% (inactive).

For `CC(Sc1nc(-c2ccccc2)cc(C(F)(F)F)n1)C(=O)N1CCOCC1` (configuration not stated), the concentration for a half-maximal effect (EC50) in assay [2] is 26.9 nM.

As for `CC(Sc1nc(-c2ccccc2)cc(C(F)(F)F)n1)C(=O)N1CCCCC1` (configuration not stated), the concentration giving a half-maximal response (EC50) in assay [2] is 25.5 nM. Regarding `COCc1ccc(CN2CCCC(C(=O)Nc3ccc(-c4cccc(OC)c4)cc3)C2)o1` (configuration not stated), the percent span in assay [1] was 41.6% (inactive). In the case of `Cc1ccc(OCc2cc(C(=O)N(C)Cc3cnn(-c4ccccc4C)c3)no2)cn1`, the half-maximal effective concentration (EC50) in assay [2] was 110 nM. On the same count and under the same terms, the same measure for `C=CCn1c(CCNC(=O)c2cccs2)nnc1SCC(=O)c1ccc(Br)cc1`: 17.5 nM. Turning to `CCC(NC(=O)c1cc(COc2ccc(C)nc2)on1)c1ccc(C)cc1` (configuration not stated), the percent span in assay [1] was 53.2% (inactive).

With `CC1(C)Cc2c(c(N3CCOCC3)nc3sc4c(NCCN)ncnc4c23)CO1`, the percent span in assay [1] was 116% (inactive).

Turning to `c1ccc(-c2nnc(SCc3nc4ccccc4[nH]3)n2Cc2ccco2)cc1`, the percent span in assay [1] was 15.8% (inactive).

`Cc1ccccc1N1CCN(c2ncnc3c2cnn3Cc2ccc(Cl)cc2)CC1`: in assay [2], the concentration for a half-maximal effect (EC50) is 4330 nM. As to `CCCCN(C(=O)c1ccc(NC(=O)C(C)C)cc1)c1ccccc1`, the percent span in assay [1] is 31.9% (inactive). The same measure, in the same setting: with `O=C(c1cc2c(=O)n3ccccc3nc2s1)N1CCN(Cc2ccc3c(c2)OCO3)CC1` the figure was 39.7% (inactive).

Regarding `Cc1ccc(OCc2nnc(SCc3nc4ccccc4[nH]3)n2Cc2ccco2)cc1`, the percent span in assay [1] was 61.9% (inactive). For `Clc1cccc(-c2nnc(SCc3nc4ccccc4[nH]3)n2Cc2ccco2)c1`, the half-maximal effective concentration (EC50) in assay [2] was 10400 nM. `O=C(NC1CCc2ccccc21)c1cc(COc2cncc(Cl)c2)on1` (configuration not stated): in assay [1], the percent span was 4.03% (inactive). For `Clc1ccc(OCc2nnc(SCc3nc4ccccc4[nH]3)n2Cc2ccco2)cc1`, the half-maximal effective concentration (EC50) in assay [2] was 10 nM.

Turning to `CC1(C)Cc2c(c(N3CCCC3)nc3sc4c(N5CCN(CCO)CC5)ncnc4c23)CO1`, the EC50 in assay [2] was 2960 nM. Still for that read-out and setting: the same measure for `C=CCn1c(CCNC(=O)c2cccs2)nnc1SCC(=O)c1cccc([N+](=O)[O-])c1`: 2.41 nM; for `COc1ccc(OC)c(CCNC(=O)C2CCN(c3nnc(-n4cccc4)s3)CC2)c1`: 919 nM. Same read-out and setting: with `CSc1nc(SCCO)c2sc3nc(-c4ccco4)c4c(c3c2n1)CC(C)(C)OC4` the figure was 1870 nM; with `CN(Cc1ccccc1)S(=O)(=O)c1ccc(NS(=O)(=O)Cc2ccccc2)cc1`, 106 nM. Take `CC(C)Cc1nc2sc3c(NCc4ccco4)ncnc3c2c2c1COC(C)(C)C2`: in assay [2], the EC50 was 39.4 nM. The same measure, in the same setting: with `CC(=O)Nc1ccc(S(=O)(=O)N2CCC(Oc3ccc(-n4cnnn4)cc3)CC2)cc1` the figure was 60.9 nM. In the case of `Cc1ccc(-c2nc3ncccc3o2)cc1NC(=O)c1sc2ccccc2c1Cl`, the percent span in assay [1] is 35.8% (inactive). With `Cc1ncc(CN2CCCC(C(=O)Nc3ccc(-c4cccc(F)c4)cc3)C2)s1` (configuration not stated), the concentration for a half-maximal effect (EC50) in assay [2] is 1240 nM.
